These results are taken from US12433868B2 (priority 2010, dated 2025).

In one series the test system is camelpox. The note with it: read-out: 50% effective concentration [EC50], inhibition of virus replication; cited from earlier work.
The next series concerns ectromelia virus (ECTV). The conditions noted are these: read-out: 50% effective concentration [EC50], inhibition of virus replication; cited from earlier work.
The next series deals with variola viruses. The note with it: read-out: 50% effective concentration [EC50], inhibition of virus replication, in vitro; cited from earlier work.
The subject of a further series is ECTV, VV, or CV. The conditions noted are these: mouse, in vivo; cited from earlier work.
A further series deals with vaccinia virus (VV). The note with it: read-out: 50% effective concentration [EC50], inhibition of virus replication, in vitro; cited from earlier work.
Another series concerns cowpox virus (CV). The conditions noted are these: read-out: 50% effective concentration [EC50], inhibition of virus replication, in vitro; cited from earlier work.
For another series, the system named is monkeypox. The conditions noted are these: read-out: 50% effective concentration [EC50], inhibition of virus replication, in vitro; cited from earlier work.
The next series has as its system VV. The conditions noted are these: orally twice a day at 15 or 50 mg/kg of body weight for 5 days; intravenous VV; cited from earlier work.
Series [1] has as its system Rift Valley fever virus (strain MP12). The class given is cell-based.
Another series is described as follows: clinical. The conditions noted are these: both, human, in vivo, po, 400 mg.
A further series concerns Zaire 79 strain of MPX. Also on record: species or system cynomolgus monkeys (Macaca fascicularis). The note with it: cynomolgus monkey, in vivo.
The conditions of series [2]: both, human, in vivo, po, 400 mg.
Another series concerns Pichinde virus. It counts as cell-based.
In another series the test system is Vaccinia virus (NYCBH). Kind of series: microbe, parasite or virus in culture. It counts as cell-based. The note with it: Orthopoxvirus vaccinia, Vero.
Series [3] deals with respiratory syncytial virus. It counts as cell-based.
The subject of a further series is cytomegalovirus. It counts as cell-based.

As for `O=C(NN1C(=O)C2C3C=CC(C4CC34)C2C1=O)c1ccc(C(F)(F)F)cc1` (stereo not shown) [ST-246, 4-trifluoromethyl-N-(3,3a,4,4a,5,5a,6,6a-octahydro-1,3-dioxo-4,6-ethenocycloprop[f]isoindol-2(1H)-yl)-benzamide], the EC50 in the series on camelpox, with ectromelia virus (ECTV), in the series with variola viruses, with vaccinia virus (VV), in the series with cowpox virus (CV) and with monkeypox was at most 70 nM throughout. For the same compound, the “preventing or reducing mortality” value in the series with ECTV, VV, or CV is listed as “highly effective in preventing or reducing mortality”. Moreover, in the series with ECTV, VV, or CV, the “toxicity in animal models” value is “nontoxic”. In the series with VV, the tail lesions result is “significantly reduced”.
As a reminder, the Cmax is the maximum level reached in the sampled fluid or tissue. What is called Tmax is the time at which the peak concentration occurs. The half-life is how long it takes for the measured level to halve. Low values mean fast loss, high ones slow loss. One may read the inhibition as the share of the control response that was lost under treatment. For the compound `O=C(NN1C(=O)C2C3C=CC(C4CC34)C2C1=O)c1ccc(C(F)(F)F)cc1` (single isomer, unassigned) [Form I, 4-trifluoromethyl-N-(3,3a,4,4a,5,5a,6,6a-octahydro-1,3-dioxo-4,6-ethenocycloprop[f]isoindol-2(1H)-yl)-benzamide], the “inhibition of replication of unrelated virus” value in series [1] is recorded as “do not inhibit”. Further, in “clinical” (Median), the peak concentration (Cmax) came to 1170 ng/mL and the Tmax came out at 3.5 h. For the same compound, in the series “clinical” (t1/2, Median), the half-life is 1510 min. Moreover, in the series on Zaire 79 strain of MPX, the “amount of viral DNA compared to vehicle-treated animals” value is on record as “significantly decrease”, the “reduction in the level of virus replication compared to vehicle-treated group” value is “more than 1,000 fold” and the survival entry was “survive”. In series [2], the “AUC0-τ, Mean” value amounted to 15624.5 ng·h/mL; the “AUC0-∞, Mean” value is 19922.02 ng·h/mL; the “Cmax, Mean” value is listed as 1068.9 ng/mL; the “Tmax, Mean” value was found to be 3.8 h. In series [2], the “t1/2, Mean” value is 27.446 h. Besides, in the series with Pichinde virus, the “inhibition of replication of unrelated virus” value was “do not inhibit”. Besides, the inhibition at 5 µM in the series on Vaccinia virus (NYCBH) (72 h, read-out: inhibition of vaccinia virus-induced CPE) is above 50%. Further, the EC50 in the series with Vaccinia virus (NYCBH) (read-out: EC50 in the CPE assay) is 50 nM. Moreover, the “inhibition of replication of unrelated virus” value in [3] was “do not inhibit”. In addition, the “inhibition of replication of unrelated virus” value with cytomegalovirus is recorded as “do not inhibit”.
The AUC is concentration integrated over time. One may read the AUC(0-inf) as the area under the concentration-time curve extrapolated to infinity. A low value points to less exposure. Compound `O=C(NN1C(=O)C2C3C=CC(C4CC34)C2C1=O)c1ccc(C(F)(F)F)cc1` (single isomer, unassigned) [Form V, 4-trifluoromethyl-N-(3,3a,4,4a,5,5a,6,6a-octahydro-1,3-dioxo-4,6-ethenocycloprop[f]isoindol-2(1H)-yl)-benzamide] came in with an AUC in the series “clinical” (AUC0-τ, Mean) of 20100 ng·h/mL. Further, in the series “clinical” (AUC0-∞, Mean), the AUC(0-inf) worked out at 22000 ng·h/mL. For the same compound, in the series “clinical” (Mean), the concentration peaked (Cmax) at 1230 ng/mL and the Tmax is 3.8 h. Further, the half-life in the series “clinical” (t1/2, Mean) is 1750 min. Besides, in [2], the “Cmax, Median” value is listed as 1180 ng/mL; the “Tmax, Median” value was found to be 4 h; the “t1/2, Median” value is 16.647 h.
